pIC50: −log10 of the molar value.
Columns and labels:
[1] = biological target: T1, lysine methyltransferase SET8 (Homo sapiens, UniProt Q9NQR1); assay: SET8 methyltransferase inhibitor screening assay kit (Cayman), fluorescence; format: biochemical; conditions: incubation at 37° C. for 10 min; inhibitor concentration not given
T1 construct: purchased Cayman Company
T1 sequence (Q9NQR1 1-393): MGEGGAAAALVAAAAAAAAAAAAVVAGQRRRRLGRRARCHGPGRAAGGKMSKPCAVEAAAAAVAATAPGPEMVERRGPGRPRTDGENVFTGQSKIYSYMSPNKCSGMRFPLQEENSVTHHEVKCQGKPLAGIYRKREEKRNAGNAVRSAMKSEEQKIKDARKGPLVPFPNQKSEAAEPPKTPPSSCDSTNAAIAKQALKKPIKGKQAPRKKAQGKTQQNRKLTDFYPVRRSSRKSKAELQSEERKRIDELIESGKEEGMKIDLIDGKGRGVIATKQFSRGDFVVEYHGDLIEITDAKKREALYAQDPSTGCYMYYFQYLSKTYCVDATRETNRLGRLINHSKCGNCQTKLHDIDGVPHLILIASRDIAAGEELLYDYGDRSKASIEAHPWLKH
Experimental: The steps of activity detection are completely based on the SET8 methyltransferase inhibitor screening assay kit of Cayman Company. In short, reagents in the kit are added to the 96-well plate to be tested according to the Table A below.
Then 10 μL of SET8 albumen protein is added to each well, and the reaction begins. After incubation at 37° C. for 10 min, the fluorescence intensity (A) value is measured at the excitation wavelength of 535 nm and the […] of 590 nm. the inhibition rate of the compound is calculated according to the following formula: Inhibition rate %=(Anormal−Asample)/)Normal*100%, and the inhibition rate of each inhibitor on lysine methyltransferase is shown in Table 1.

glioma cell line SH-SY5Y = assay: CCK-8 cell proliferation inhibition test, SH-SY5Y; format: cell-based; conditions: Homo sapiens, 48 h; for inhibition at 100 µM: read-out: IC % for 100 μM; for pIC50: CCK-8
Experimental: (§1) 1. Experimental Method: […] cell line SH-SY5Y, colorectal cancer cell line SW480 and liver cancer cell line HepG2 are respectively cultured in an RPMI-1640 medium containing 10% calf serum at 37° C. in a 5% CO2 incubator. The […] method is adopted for cell proliferation inhibition test, and the main operation is as follows: taking the tumor cell line in the logarithmic phase, digesting with 0.25% trypsin, preparing an RPMI-1640 medium containing 10% newborn calf serum into a cell suspension of 6×10^4 cells/mL, and inoculating the cell suspension into a 96-well plate, with 100 μL per well. Culturing at 37° C. and 5% CO2 saturated humidity for 12 h. After adherence, absorbing the culture supernatants in the wells, and adding the sample solution prepared from the RPMI-1640 medium containing 1% calf serum to each well so that the final concentrations of the samples are 100 μM, 30 μM, 10 μM, 3 μM, 1 μM, and 0.3 μM respectively. With 3 wells in parallel for each concentration, continuing culturing for 48 h, then adding 10 μL of CCK-8 solution (Dalian Meilun, MA0218) to each well, and continuing incubating at 37° C. and 5% CO2 for 4 h. Selecting 470 nm on the enzyme-linked immunosorbent assay apparatus to measure the light absorption value of each well, and setting a blank group (only adding a culture solution containing cells) and a control group (using the culture solution to replace drugs) to calculate the cell proliferation inhibition rate. Inhibition rate (%)=(1−average OD value of 3 wells in experimental group/average OD value of 3 wells in control group)×100%. With the inhibition rate as an ordinate, a regression curve is drawn to calculate the IC50 value of the sample. Graphpad prism 7.0 software are adopted for data processing and statistical analysis by.

[2] = tested on: colorectal cancer cell line SW480; assay: CCK-8 cell proliferation inhibition test, SW480; format: cell-based; conditions: for pIC50: Homo sapiens, SW480, 48 h, CCK-8; for IC % for 100 μM: SW480, 100 μM, 48 h; for tumor cell proliferation inhibitory activity (in words): SW480, summary of Table 2
Experimental: as §1

[3] = tested on: liver cancer cell line HepG2; assay: CCK-8 cell proliferation inhibition test, HepG2; format: cell-based; conditions: for IC % for 100 μM: HepG2, 100 μM, 48 h; for tumor cell proliferation inhibitory activity (in words): HepG2, summary of Table 2; for pIC50: Homo sapiens, HepG2, 48 h, CCK-8
Experimental: as §1

Structure (SMILES) | Inhibition Rate (%) [1] | inhibition at 100 µM (glioma cell line SH-SY5Y) | pIC50 (glioma cell line SH-SY5Y) | pIC50 [2] | IC % for 100 μM [2] | tumor cell proliferation inhibitory activity (in words) [2] | IC % for 100 μM [3] | tumor cell proliferation inhibitory activity (in words) [3] | pIC50 [3]
CN1CCC(n2nc(-c3ccccc3)nc2C2CNCCO2)CC1 (stereo not drawn) [Compound 15, 2-(1-(1-methylpiperidin-4-yl)-3-phenyl-1H-1,2,4-triazol-5-yl)morpholine] | 53.9% | 52.3% | 4.02 |  |  |  |  |  | 
COc1ccc(Cc2nc(C3CNCCO3)n(C)n2)cc1 (stereo not drawn) [Compound 8, 2-(3-(4-methoxybenzyl)-1-methyl-1H-1,2,4-triazol-5-yl)morpholine] | 69.3% | 59.5% | 4.14 |  |  |  |  |  | 
COc1ccc(Cc2nc(C3CNCCO3)n(C3CCCCC3)n2)cc1 (stereo not drawn) [Compound 3, 2-(1-cyclohexyl-3-(4-methoxybenzyl)-1H-1,2,4-triazol-5-yl)morpholine] | 70.0% | 76.5% | 4.65 | 4.74 | 73.2% | good tumor cell proliferation inhibitory activity | 48.8% | good tumor cell proliferation inhibitory activity | 4.72
COc1ccc(Cc2nc(C)n(C3CCN(C)CC3)n2)cc1 [Compound 20] | 76.9% | 84.7% | 4.98 | 4.95 | 79.6% | good tumor cell proliferation inhibitory activity | 68.7% | good tumor cell proliferation inhibitory activity | 4.87
COc1ccc(Cc2nc(C3CNCCO3)n(-c3ccccc3)n2)cc1 (stereo not drawn) [Compound 4, 2-(3-(4-methoxybenzyl)-1-phenyl-1H-1,2,4-triazol-5-yl)morpholine] | 71.5% | 57.8% | 4.10 |  |  |  |  |  | 
Cc1ccc(-c2nc(C3CNCCO3)n(C3CCN(C)CC3)n2)cc1 (stereo not drawn) [Compound 16, 2-(1-(1-methylpiperidin-4-yl)-3-(p-methylphenyl)-1H-1,2,4-triazol-5-yl)morpholine] | 54.8% | 52.8% | 4.03 |  |  |  |  |  | 
COc1ccc(Cc2nc(C3CCCCC3)n(C3CCN(C)CC3)n2)cc1 [Compound 18, 4-(5-cyclohexyl-3-(4-methoxybenzyl)-1H-1,2,4-triazol-5-yl)-1-methylpiperidin] | 43.8% | 41.9% | 3.90 |  |  |  |  |  | 
COc1ccc(Cn2nc(-c3ccccc3)nc2C2CNCCO2)cc1 (stereo not drawn) [Compound 13, 2-(1-(4-methoxybenzyl)-3-phenyl-1H-1,2,4-triazol-5-yl)morpholine] | 32.5% | 37.8% | 3.86 |  |  |  |  |  | 
COc1ccc(Cc2nc(C3CNCCO3)n(-c3cccc(C)c3)n2)cc1 (stereo not drawn) [Compound 5, 2-(3-(4-methoxybenzyl)-1-(m-methylphenyl)-1H-1,2,4-triazol-5-yl)morpholine] | 70.2% | 57.1% | 4.09 |  |  |  |  |  | 
COc1ccc(Cc2nc(C3CNCCO3)n(-c3ccccn3)n2)cc1 (stereo not drawn) [Compound 6, 2-(3-(4-methoxybenzyl)-1-(pyridin-2-yl)-1H-1,2,4-triazol-5-yl)morpholine] | 70.3% | 58.6% | 4.12 |  |  |  |  |  | 
CN1CCC(n2nc(Cc3ccccc3)nc2C2CNCCO2)CC1 (stereo not drawn) [Compound 14, 2-(3-benzyl-1-(1-methylpiperidin-4-yl)-1H-1,2,4-triazol-5-yl)morpholine] | 59.2% | 53.2% | 4.03 |  |  |  |  |  | 
COc1ccc(Cc2nc(C3CCCCO3)n(C3CCN(C)CC3)n2)cc1 (stereo not drawn) [Compound 10, 4-(3-(4-methoxybenzyl)-5-(tetrahydro-2H-pyran-2-yl)-1H-1,2,4-triazol-5-yl)-1-methylpiperidin] | 43.6% | 43.3% | 3.91 |  |  |  |  |  | 
COc1ccc(Cc2nc(C3CCCCO3)n(Cc3ccc(OC)cc3)n2)cc1 (stereo not drawn) [Compound 12, 1,3-bis(4-methoxybenzyl)-5-(tetrahydro-2H-pyran-2-yl)-1H-1,2,4-triazole] | 67.8% | 60.1% | 4.14 |  |  |  |  |  | 
COc1ccc(Cc2nc(C3CNCCO3)n(C3CCN(C)CC3)n2)cc1 (stereo not drawn) [Compound 1, 2-(3-(4-methoxybenzyl)-1-(1-methylpiperidin-4-yl)-1H-1,2,4-triazol-5-yl)morpholine] | 58.4% | 52.5% | 4.02 |  |  |  |  |  | 
COc1ccc(Cc2nc(C3CNCCO3)n(Cc3ccc(OC)cc3)n2)cc1 (stereo not drawn) [Compound 2, 2-(1,3-bis(4-methoxybenzyl)-1H-1,2,4-triazol-5-yl)morpholine] | 74.2% | 78.3% | 4.86 | 4.79 | 75.8% | good tumor cell proliferation inhibitory activity | 51.5% | good tumor cell proliferation inhibitory activity | 4.75
COc1ccc(Cc2nc(C3CN(Cc4ccccc4)CCO3)n(C3CCN(C)CC3)n2)cc1 (stereo not drawn) [Compound 9, 4-benzyl-2-(3-(4-methoxybenzyl)-1-(1-methylpiperidin-4-yl)-1H-1,2,4-triazol-5-yl)morpholine] | 72.3% | 58.5% | 4.11 |  |  |  |  |  | 
Cc1cccc(-c2nc(C3CNCCO3)n(C3CCN(C)CC3)n2)c1 (stereo not drawn) [Compound 17, 2-(1-(1-methylpiperidin-4-yl)-3-(m-methylphenyl)-1H-1,2,4-triazol-5-yl)morpholine] | 58.3% | 53.7% | 4.04 |  |  |  |  |  | 
COc1ccc(Cc2nc(C3CCCCC3)n(Cc3ccc(OC)cc3)n2)cc1 [Compound 21, 5-cyclohexyl-1,3-dis(4-methoxybenzyl)-1H-1,2,4-triazole] | 43.7% | 46.2% | 3.95 |  |  |  |  |  | 
COc1ccc(Cc2nc(CN)n(C3CCN(C)CC3)n2)cc1 [Compound 11, (3-(4-methoxybenzyl)-1-(1-methylpiperidin-4-yl)-1H-1,2,4-triazol-5-yl)methylamine] | 36.8% | 39.9% | 3.88 |  |  |  |  |  | 
COc1ccc(Cc2nc(C3CNCCO3)n(-c3cnccn3)n2)cc1 (stereo not drawn) [Compound 7, 2-(3-(4-methoxybenzyl)-1-(pyrazin-2-yl)-1H-1,2,4-triazol-5-yl)morpholine] | 70.8% | 57.9% | 4.11 |  |  |  |  |  | 
COc1ccc(Cc2nc(C(C)(C)C)n(C3CCN(C)CC3)n2)cc1 [Compound 19] | 45.2% | 44.8% | 3.93 |  |  |  |  |  | 

Source: US12281107B2, “SET8 lysine methyltransferase inhibitor and preparation method and application thereof” (HAINAN YILING MEDICAL INDUSTRY & DEVELOPMENT Co., Ltd., priority 2019, dated 2025)
